From US20230212131A1, “COLLAGEN 1 TRANSLATION INHIBITORS AND METHODS OF USE THEREOF” (Anima Biotech Inc., priority 2020, published 2023)

Test system: collagen 1 (COL1)
Assay: WI-38 collagen 1 inhibition assay
Type: cell-based, human
Details: Cellular EC50, WI-38 cells; values are classes of LogEC50
From the text: All compounds were profiled for cellular potency in inhibition of collagen 1 (COL1) protein translation using a phenotypic screening platform.
WI-38 cells (ATCC® CCL-75™) were maintained in MEM EAGLE (NEAA) W. GLUTAMIN (Biological Industries, Cat. 06-1040-15-1A) containing 10% fetal bovine serum (FBS) and 1% Penicillin-Streptomycin Solution. To synchronize the cells (cell cycle synchronization) prior to induction of collagen synthesis, the cells were starved using DMEM-low glucose supplemented with 0.25% FBS for two hours and then without FBS for 24 hours. To induce collagen synthesis, the cells were treated with a collagen induction cocktail for the indicated time. Compounds were added with induction.
Cells in 96-well or 384-well plates were fixed for 20 min in 4% paraformaldehyde (PFA, ENCO, Cat. sc-281692). Following two washes with 1×PBS, cells were treated with hydrogen peroxide (Acros, Cat: 7722-84-1) for 10 minutes and then washed twice with 1×PBS. Cells were then incubated over-night at 4° C. with Anti-Collagen I (Sigma-Aldrich, Cat: C 2456) antibody and washed three times with 1×PBS. Cells were then incubated with a suitable secondary fluorescently-tagged antibody and nuclei stained with DAPI, for 1 hour, and then washed 3 times with 1×PBS.
Cell images were taken with Operetta (Perkin Elmer, USA), a wide-field fluorescence microscope at 20× magnification. After acquisition, the images were transferred to Columbus software (Perkin-Elmer) for image analysis. In Columbus, cells were identified by their nucleus, using the “Find Nuceli” module and cytoplasm was detected based on the secondary antibody channel. Subsequently, the fluorescent signal was enumerated in the identified cell region. Data was exported to a data analysis and visualization software, Tibco Spotfire, USA.

| SMILES | COL1 Efficacy (LogEC50) |
| --- | --- |
| Cc1ccc(C(=O)Nc2nc(-c3cccnc3C)cs2)cn1 [Compound 344, 6-methyl-N-[4-(2-methyl-3-pyridyl)thiazol-2-yl]pyridine-3-carboxamide] | +++ (+++: <−6) |
| COc1ccc(C(=O)Nc2nc(-c3cccnc3)cs2)cc1 [Compound 316, 4-methoxy-N-[4-(3-pyridyl)thiazol-2-yl]benzamide] | ++ (++: −5 to −6) |
| COc1cc(N2CCOCC2)ccc1C(=O)Nc1nc(-c2ccccc2Cl)cs1 [Compound 441, N-(4-(2-chlorophenyl)thiazol-2-yl)-2-methoxy-4-morpholinobenzamide] | ++ (++: −5 to −6) |
| COc1ncc(C(=O)Nc2nc(-c3cccnc3C)cs2)cn1 [compound 355, 2-methoxy-N-[4-(2-methyl-3-pyridyl)thiazol-2-yl]pyrimidine-5-carboxamide] | − (−: inactive) |
| O=C(Nc1nc(C2CCOCC2)cs1)c1ccc(N2CCOCC2)cn1 [compound 393, 5-morpholino-N-(4-(tetrahydro-2H-pyran-4-yl)thiazol-2-yl)picolinamide] | ++ (++: −5 to −6) |
| CC(=O)N1CCN(c2cnc(C(=O)Nc3nc(-c4ccccc4Cl)cs3)c(C)c2)CC1 [compound 458, 5-(4-acetylpiperazin-1-yl)-N-(4-(2-chlorophenyl)thiazol-2-yl)-3-methylpicolinamide] | +++ (+++: <−6) |
| O=C(Nc1nc(-c2ccccc2Cl)cs1)c1ccc(N2CCC(CCO)CC2)cn1 [compound 478, N-(4-(2-chlorophenyl)thiazol-2-yl)-5-(4-(2-hydroxyethyl)piperidin-1-yl)picolinamide] | +++ (+++: <−6) |
| Cc1cc(N2CCOCC2)ccc1C(=O)Nc1nc(-c2ccccc2Cl)cs1 [Compound 410, N-(4-(2-chlorophenyl)thiazol-2-yl)-2-methyl-4-morpholinobenzamide] | +++ (+++: <−6) |
| COCc1cc(N2CCOCC2)ccc1C(=O)Nc1nc(-c2ccccc2Cl)cs1 [compound 436] | − (−: inactive) |
| O=C(Nc1nc(N2CCCC2=O)cs1)c1ccc(N2CCOCC2)cn1 [Compound 395, 5-morpholino-N-(4-(2-oxopyrrolidin-1-yl)thiazol-2-yl)picolinamide] | + (+: >−5) |
| CC(=O)N1CCN(c2cc(C)c(C(=O)Nc3nc(-c4ccccc4Cl)cs3)c(C)c2)CC1 [compound 474] | − (−: inactive) |
| O=C(Nc1nc(-c2ccccc2Cl)cs1)C1CN(C2CCOCC2)C1 [compound 363, N-[4-(2-chlorophenyl)thiazol-2-yl]-1-tetrahydropyran-4-yl-azetidine-3-carboxamide] | ++ (++: −5 to −6) |
| COCc1ccccc1-c1csc(NC(=O)c2ccc(N3CCC(O)CC3)cn2)n1 [Compound 468, 5-(4-hydroxypiperidin-1-yl)-N-(4-(2-(methoxymethyl)phenyl)thiazol-2-yl)picolinamide] | +++ (+++: <−6) |
| COCCOc1ccccc1-c1csc(NC(=O)c2ccc(OC)cc2)n1 [Compound 328, 4-methoxy-N-[4-[2-(2-methoxyethoxy)phenyl]thiazol-2-yl]benzamide] | ++ (++: −5 to −6) |
| CN1CCN(C(=O)c2ccc(C(=O)Nc3nc(-c4ccccc4Cl)cs3)nc2)CC1 [compound 437, N-(4-(2-chlorophenyl)thiazol-2-yl)-5-(4-methylpiperazine-1-carbonyl)picolinamide] | ++ (++: −5 to −6) |
| O=C(Nc1nc(-c2ccccc2Cl)cs1)c1ccc(N2CCOCC2)cc1C(F)(F)F [Compound 411, N-(4-(2-chlorophenyl)thiazol-2-yl)-4-morpholino-2-(trifluoromethyl)benzamide] | +++ (+++: <−6) |
| Cc1ccc(C(=O)Nc2nc(-c3ccccc3Cl)cs2)nc1 [compound 329, N-[4-(2-chlorophenyl)thiazol-2-yl]-5-methyl-pyridine-2-carboxamide] | ++ (++: −5 to −6) |
| O=C(Nc1nc(-c2ccccc2Cl)cs1)c1ccc(C2CCOCC2)cn1 [Compound 381, N-(4-(2-chlorophenyl)thiazol-2-yl)-5-(tetrahydro-2H-pyran-4-yl)picolinamide] | +++ (+++: <−6) |

| SMILES | COL1 Efficacy (LogEC50) |
| --- | --- |
| O=C(Nc1nc(-c2ccccc2Cl)cs1)C1CCC(N2CCOCC2)CC1 (stereo not drawn) [compound 432] | − (−: inactive) |
| O=C(Nc1nc(-c2ccccc2Cl)cs1)c1ccc(N2CCCC(O)C2)cn1 (stereo not drawn) [compound 477, N-(4-(2-chlorophenyl)thiazol-2-yl)-5-(3-hydroxypiperidin-1-yl)picolinamide] | +++ (+++: <−6) |
| COCc1ncccc1-c1csc(NC(=O)c2ccc(N3CCN(C(C)=O)CC3)cn2)n1 [compound 471, 5-(4-acetylpiperazin-1-yl)-N-(4-(2-(methoxymethyl)pyridin-3-yl)thiazol-2-yl)picolinamide] | +++ (+++: <−6) |
| CN1CC2(C1)CN(c1ccc(C(=O)Nc3nc(-c4ccccc4Cl)cs3)nc1)C2 [compound 459] | − (−: inactive) |
| COCCN1CCN(c2ccc(C(=O)Nc3nc(-c4ccccc4Cl)cs3)cc2)CC1 [Compound 377, N-(4-(2-chlorophenyl)thiazol-2-yl)-4-(4-(2-methoxyethyl)piperazin-1-yl)benzamide] | +++ (+++: <−6) |
| COc1ccccc1-c1csc(NC(=O)c2ccc(N3CCOCC3)cc2)n1 [compound 351, N-[4-(2-methoxyphenyl)thiazol-2-yl]-4-morpholino-benzamide] | +++ (+++: <−6) |
| CN1CCC(Oc2ccc(C(=O)Nc3nc(-c4ccccc4Cl)cs3)nc2)CC1 [compound 439, N-(4-(2-chlorophenyl)thiazol-2-yl)-5-((1-methylpiperidin-4-yl)oxy)picolinamide] | +++ (+++: <−6) |
| Cc1ncccc1-c1csc(NC(=O)c2ccc(N3CCOCC3)cc2)n1 [compound 369, N-[4-(2-methyl-3-pyridyl)thiazol-2-yl]-4-morpholino-benzamide] | ++ (++: −5 to −6) |
| CS(=O)(=O)N1CCN(C23CC(C(=O)Nc4nc(-c5ccccc5Cl)cs4)(C2)C3)CC1 [Compound 418, N-(4-(2-chlorophenyl)thiazol-2-yl)-3-(4-(methylsulfonyl)piperazin-1-yl)bicyclo[1.1.1]pentane-1-carboxamide] | ++ (++: −5 to −6) |
| COc1ccc(C(=O)Nc2nc(-c3ccc(F)cc3Cl)cs2)cc1 [Compound 321, N-[4-(2-chloro-4-fluoro-phenyl)thiazol-2-yl]-4-methoxy-benzamide] | +++ (+++: <−6) |
| COc1cnc(C(=O)Nc2nc(-c3ccccc3Cl)cs2)cn1 [compound 330, N-[4-(2-chlorophenyl)thiazol-2-yl]-5-methoxy-pyrazine-2-carboxamide] | ++ (++: −5 to −6) |
| CS(=O)(=O)N1CCN(C2CCC(C(=O)Nc3nc(-c4ccccc4Cl)cs3)CC2)CC1 (single isomer, unassigned) [Compound 434, (1s,4s)-N-(4-(2-chlorophenyl)thiazol-2-yl)-4-(4-(methylsulfonyl)piperazin-1-yl)cyclohexane-1-carboxamide] | + (+: >−5) |
| O=C(Nc1nc(-c2ccccc2Cl)cs1)c1ccc(N2CCC(CO)CC2)cn1 [compound 479, N-(4-(2-chlorophenyl)thiazol-2-yl)-5-(4-(hydroxymethyl)piperidin-1-yl)picolinamide] | +++ (+++: <−6) |
| COc1ccc(C(=O)Nc2nc(-c3cc(Cl)cc(Cl)c3)cs2)cc1 [Compound 315, N-(4-(3,5-dichlorophenyl)thiazol-2-yl)-4-methoxybenzamide] | +++ (+++: <−6) |
| COc1ccc(C(=O)Nc2nc(-c3ccc(F)cc3F)cs2)cc1 [Compound 325, N-[4-(2,4-difluorophenyl)thiazol-2-yl]-4-methoxy-benzamide] | +++ (+++: <−6) |
| CC(=O)N1CCN(c2ccc(C(=O)Nc3nc(-c4ccccc4Cl)cs3)nc2)CC1 [compound 442, 5-(4-acetylpiperazin-1-yl)-N-(4-(2-chlorophenyl)thiazol-2-yl)picolinamide] | +++ (+++: <−6) |
| O=C(Nc1nc(-c2ccccc2Cl)cs1)C12CC(N3CCOCC3)(C1)C2 [Compound 416, N-(4-(2-chlorophenyl)thiazol-2-yl)-3-morpholinobicyclo[1.1.1]pentane-1-carboxamide] | ++ (++: −5 to −6) |
| O=C(Nc1nc(-c2ccccc2Cl)cs1)c1ccc(C(=O)N2CCS(=O)(=O)CC2)cc1 [compound 385, N-(4-(2-chlorophenyl)thiazol-2-yl)-4-(1,1-dioxidothiomorpholine-4-carbonyl)benzamide] | ++ (++: −5 to −6) |
